# Experimental data: ChEMBL document CHEMBL1151068, “Rollimembrin, a novel acetogenin inhibitor of mammalian mitochondrial complex I” (Bioorg Med Chem Lett, 1997)
# Target: Mitochondrial complex I; NADH oxidoreductase (Bos taurus, UniProt P25708+P52505)
# Assay: Concentration required for the inhibition of NADH oxidase in submitochondrial particles from beef heart
# Type: protein-complex assay
# Mitochondrial complex I; NADH oxidoreductase, sequence (P25708 21-464 limits assumed, other chains not shown): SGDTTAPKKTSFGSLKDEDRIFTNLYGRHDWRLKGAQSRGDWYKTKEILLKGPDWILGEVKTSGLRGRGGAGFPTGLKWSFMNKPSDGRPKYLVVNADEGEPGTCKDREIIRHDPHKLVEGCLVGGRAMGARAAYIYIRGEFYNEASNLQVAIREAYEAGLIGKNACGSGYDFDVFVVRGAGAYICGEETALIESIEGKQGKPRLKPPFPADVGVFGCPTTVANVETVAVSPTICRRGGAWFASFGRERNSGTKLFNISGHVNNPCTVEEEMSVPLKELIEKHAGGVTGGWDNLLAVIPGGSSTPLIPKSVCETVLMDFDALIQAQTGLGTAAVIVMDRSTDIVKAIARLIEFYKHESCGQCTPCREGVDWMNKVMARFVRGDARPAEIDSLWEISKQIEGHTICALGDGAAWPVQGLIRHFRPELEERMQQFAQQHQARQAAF
row,Structure (SMILES),IC50 [nM]
1,CCCCCCCCCC[C@H](O)[C@H]1CC[C@@H]([C@@H]2CC[C@H]([C@H](O)CCCCCCCCCCCCC3=C[C@@H](C)OC3=O)O2)O1,0.58
2,CCCCCCCCCC[C@H](O)[C@H]1CC[C@@H]([C@@H]2CC[C@H]([C@H](O)CCCCCCCCCC[C@@H](O)CC3=C[C@@H](C)OC3=O)O2)O1,0.58
3,CCCCCCCCCC[C@H](O)[C@H]1CC[C@@H]([C@@H]2CC[C@H]([C@H](O)CCCCCCCC[C@@H](O)CC3=C[C@@H](C)OC3=O)O2)O1,0.33
